Experimental data as given in patent publication US10457665B2, “1,4-di-(4-methylthiophenyl)-3-phtaloylazetidine-2-one and the derivatives thereof” (Universite De Nantes, priority 2015, dated 2019).

Key:
[1] = test system: CB1R expression in liver explants of ob/ob mice; experiment: Liver explant culture, CB1R gene expression (RT-PCR); format: cell-based, mouse; conditions: liver explants of ob/ob mice treated 21 h, FIG. 1
Procedure: The liver of the mice was perfused in situ, under sodium pentobarbital anaesthesia (50 mg/kg), with Hank's medium (pH 7.4) saturated with oxygen. Next, the liver was sectioned using a Brendel/Vitron slicer (Tucson, Ariz., USA) in the same medium. The liver sections (about 200 μm) were then incubated 21 h in William's medium E (WME) oxygenated and supplemented with deactivated foetal calf serum (10%) and antibiotic/antifungal cocktail (1%) under controlled atmosphere (5% CO2), to which is added either the antagonist to be tested or vehicle.
Total messenger RNA (mRNA) extraction was carried out with Tri Reagent (Euromedex, France) and consecutive synthesis of complementary DNA (cDNA) was carried out from 1 μg of mRNA with the Bio-Rad iScripttm Reverse Transcription super mix kit (Bio-Rad, France).
Gene expression was evaluated by semi-quantitative real-time reverse transcription-polymerase chain reaction (RT-PCR). The primers used were designed using the Primer3Plus software (http://www.bioinformatics.nl/cgi-bin/primer3plus/primer3plus.cgi) and were synthesized by MWG-Biotech (TATA box-binding protein: Sense […], antisense […]; CB1R: Sense […], antisense aaccccacccagtttgaac). Semi-quantification of gene expression was obtained by taking into account the efficacy of each PCR and after standardization with the reporter gene, TATA box-binding protein.

CB1R -/- mice = experiment: Acute oral glucose tolerance test (OGTT) in CB1R KO mice; format: in vivo, mouse; conditions: 10 mg/kg i.p., OGTT 2 g/kg
Procedure: In order to evaluate the short-term effects of the rimonabant-like molecules, as well as their selectivity for CB1R, wild-type C57BL/6 mice and CB1R −/− mice underwent an oral glucose tolerance test (OGTT at 2 g/kg) 10 min after i.p. injection of vehicle or of JM-02.003 or JM-00.266 (i.e., compound IA) (10 mg/kg). Blood glucose was measured at times t=0, t=15 min, t=30 min, t=45 min, t=60 min, t=90 min, and t=120 min post-oral. glucose administration using a Contour®TS blood glucose monitor (ref. 81574201, Bayer HealthCare) and reactive strips (ref. 81574274, Bayer HealthCare).

wild-type C57BL/6 mice = experiment: Plasma insulin during OGTT (ELISA); format: in vivo, mouse; conditions: 10 mg/kg i.p.
Procedure: Assay of plasma insulin was carried out using the ALPCO™ Mouse Insulin ELISA Kit (ref. AKRIN-011T, ALPCO Diagnostics) according to the supplier's instructions. Blood samples were collected during an OGTT at t=0, t=30, t=60, t=120 min post-administration of the oral bolus of glucose (2 g/kg).

obese C57BL/6 mice [2] = experiment: Plasma liver markers after 30-day chronic treatment; format: in vivo, mouse
Excerpt: In order to determine the long-term effects of the molecules of interest, C57BL/6 mice made obese by means of a high-sucrose, high-fat diet (HSHF: 30% crude fat, 33.5% carbohydrates; ref. E15126-34; ref. E15126-34, SSNIFF, Soest, Germany) for 20 weeks. These mice then received daily an i.p. injection of rimonabant, JM-00.266 (i.e., compound IA) or vehicle for a period of 30 days. In parallel, weight and food intake were monitored every two days following the beginning of the treatment.
(§1) Total cholesterol, triglycerides and hepatic markers were assayed by a Dimension Vista Intelligent Lab System (Siemens, Saint-Denis, France) using suitable reagents.

obese C57BL/6 mice [3] = experiment: Glucose tolerance test after 43-day oral treatment with low-fat diet; format: in vivo, mouse; conditions: 43 days, orally 10 mg/kg once per day
Procedure: In order to evaluate the long-term effects of the treatment on blood glucose control, glucose tolerance was evaluated at the end of the treatment period. The mice received an intraperitoneal injection of glucose (2 g/kg) then blood glucose was measured at times t=0, t=15 min, t=30 min, t=45 min, t=60 min, t=90 min, and t=120 min post-glucose injection using a My Life Pura blood glucose monitor (Ypsomed, Paris, France).

obese C57BL/6 mice [4] = experiment: Body mass, oral treatment simultaneously with food on high-fat diet; format: in vivo, mouse; conditions: obese mice on high-fat diet (35% crude fat), one administration daily during the meal, 10 mg/kg oral, 28 days
Procedure: C57BL/6 mice were made obese by means of a high-fat diet (35% crude fat, 25.3% carbohydrates; ref. E15742-34, SSNIFF, Soest, Germany) for 15 weeks. […] The weight of the animals was measured every two days from the beginning of the treatment.

[5] = test system: liver, subcutaneous and visceral adipose tissue of obese mice; experiment: Gene expression of markers (RT-PCR) in liver and adipose tissues after oral treatment with food; format: in vivo, mouse
Procedure: Total messenger RNA (mRNA) extraction was carried out with Tri-Reagent (Euromedex, France) and consecutive synthesis of complementary DNA (cDNA) was carried out from 1 μg of mRNA with the Bio-Rad iScripttm Reverse Transcription super mix kit (Bio-Rad, France). Gene expression was evaluated by semi-quantitative real-time reverse transcription-polymerase chain reaction (RT-PCR). The primers used, described below, were selected using the Primer3Plus software (http://www.bioinformatics.nl/cgi-25 bin/primer3plus/primer3plus.cgi) and synthesized by MWG-Biotech. Semi-quantification of gene expression was obtained by taking into account the efficacy of each PCR and standardization with the reporter gene TATA box-binding protein (TBP).
The impact of the treatment on endocannabinoid system activity is evaluated by measuring the gene expression 1) of receptors CB1R and CB2R 2) of the endocannabinoid synthesis enzyme, N-acyl phosphatidylethanolamine phospholipase D (NAPE-PLD) and 3) of the endocannabinoid degradation enzyme, fatty acid amide hydrolase (FAAH).
Fatty acid synthase (FAS), stearoyl-CoA desaturase 1 (SCD-1) and glycerol-phosphate acyl-transferase (GPAT2) are enzymes whose expression variations reflect lipogenic activity.
Glucose-6-phosphatase (G6P) and the glucose transporters GLUT2 and GLUT4 in the liver are used herein as neoglucogenesis markers.
F4/80 is a mature macrophage marker.
Tumour necrosis factor-alpha (TNF-a) is a proinflammatory cytokine affecting the regulation of numerous biological processes such as immune functions, cell differentiation and energy metabolism.

[6] = Plasma assay of triglycerides; format: in vivo, mouse; conditions: context of obesity; stated in conclusion only
Procedure: as §1

[7] = obese mice, 10 mg/kg i.p. daily, 30 days

## CSc1ccc(C2C(N3C(=O)c4ccccc4C3=O)C(=O)N2c2ccc(SC)cc2)cc1 (stereo not drawn) [JM-00.266, trans-1,4-di-(4-methylthiophenyl)-3-N-phthaloyl-azetidine-2-one]
[1]
  hepatic CB1R expression: significant decrease
CB1R -/- mice
  improvement in glucose tolerance in CB1R KO mice: abolished
wild-type C57BL/6 mice; versus vehicle
  blood insulin at t=30 min: lower
wild-type C57BL/6 mice; wild-type mice
  insulin production induced by glucose administration: not stimulated
Obese C57BL/6 mice [2]; 30-day chronic treatment
  liver damage markers compared with the control: does not cause an increase
Obese C57BL/6 mice [2]; chronic administration
  liver toxicity: no liver toxicity
Obese C57BL/6 mice [2]; [7]
  ALPI plasma concentration: 47.3 ± 3.6
  ALT plasma concentration: 34.3 ± 10.5 U/L
  AST plasma concentration: 60.8 ± 13.4 U/L
  Gamma GT plasma concentration: <3 U/L
  Total bilirubin plasma concentration: <2 µmol/L
Obese C57BL/6 mice [3]
  glucose tolerance versus VEH+LF and VEH+HF: better glucose tolerance
Obese C57BL/6 mice [4]
  weight loss versus vehicle: lose more weight
[5]; adipose tissue
  TNF-a expression: trend towards the reduction
  expression of FAS: reduction
[5]; any of the tissues tested
  expression of CB R: not modified
  expression of FAAH: not modified
[5]; liver
  expression of GPAT: reduction
  expression of SCD-1: reduction
[5]; liver and adipose tissues
  F4/80 expression: clearly decreased
[5]; tissues of treated animals
  CB2R expression: lower
[5]; tissues tested, 28 d oral with food
  expression of NAPE-PLD: reduction
[6]
  blood triglycerides: decreasing blood triglycerides
